The values that follow are results of earlier work, collected in patent publication US6608222B2, “Bioactive conjugated linoleic acid glycerides and method of use” (Alpha Food Ingredients, Inc., priority 2000, dated 2003).

In the series the test system is hamsters. The note with it: feeding studies with hamsters; compared with a composite group of CLA-FFA isomers.

Consider `CCCCCC/C=C/C=C\CCCCCCCC(=O)O` [purified c-9, t-11 CLA-FFA, cis-9, trans-11-octadecadienoic acid], for which the biological activity entry is “not so biologically active as a composite group of CLA-FFA isomers”.
